# Experimental data: ChEMBL document CHEMBL1201862, “PubChem BioAssay data set” (2004)
#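 Five compound concentrations were applied to cells in 96-well plates for 48 hours; endpoints were derived by simple linear interpolation of the resulting dose-response curve. Here, GI50 denotes the concentration required for 50% inhibition of growth.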 The source made the active and inactive calls. Rule as the data show it: active = GI50 up to about 1.1 µM and inactive = higher.
# Experiments:
# Experiment in all cases: inhibition of tumour cell growth, NCI panel, 48 h
# 786-0 = system: 786-0
# A498 = system: A498
# A549 = system: A549
# ACHN = system: ACHN
# BT-549 = system: BT-549
# CAKI-1 = system: CAKI-1
# CCRF-CEM = system: CCRF-CEM
# COLO 205 = system: COLO 205
# DU-145 = system: DU-145
# EKVX = system: EKVX
# HCC 2998 = system: HCC 2998
# HCT-116 = system: HCT-116
# HCT-15 = system: HCT-15
# HL-60 = system: HL-60
# HOP-62 = system: HOP-62
# HOP-92 = system: HOP-92
# HT-29 = system: HT-29
# Hs-578T = system: Hs-578T
# IGROV-1 = system: IGROV-1
# K562 = system: K562
# KM12 = system: KM12
# LOX IMVI = system: LOX IMVI
# M14 = system: M14
# MCF7 = system: MCF7
# MDA-MB-231 = system: MDA-MB-231
# MDA-MB-435 = system: MDA-MB-435
# MDA-N = system: MDA-N
# MOLT-4 = system: MOLT-4
# Malme-3M = system: Malme-3M
# NCI-H226 = system: NCI-H226
# NCI-H23 = system: NCI-H23
# NCI-H460 = system: NCI-H460
# NCI-H522 = system: NCI-H522
# NCI/ADR-RES = system: NCI/ADR-RES
# OVCAR-3 = system: OVCAR-3
# OVCAR-4 = system: OVCAR-4
# OVCAR-5 = system: OVCAR-5
# OVCAR-8 = system: OVCAR-8
# PC-3 = system: PC-3
# RPMI-8226 = system: RPMI-8226
# RXF 393 = system: RXF 393
# SF-268 = system: SF-268
# SF-295 = system: SF-295
# SF-539 = system: SF-539
# SK-MEL-28 = system: SK-MEL-28
# SK-MEL-2 = system: SK-MEL-2
# SK-MEL-5 = system: SK-MEL-5
# SK-OV-3 = system: SK-OV-3
# SN12C = system: SN12C
# SNB-19 = system: SNB-19
# SNB-75 = system: SNB-75
# SR = system: SR
# SW-620 = system: SW-620
# T47D = system: T47D
# TK-10 = system: TK-10
# U-251 = system: U-251
# UACC-257 = system: UACC-257
# UACC-62 = system: UACC-62
# UO-31 = system: UO-31
smiles,measurement,setting,value
CCCC(CC)c1cc(O)c(O)cc1C(CC)CCC (centres undefined),GI50,786-0,> 10 µM (inactive)
same,GI50,A498,> 10 µM (inactive)
same,GI50,A549,> 10 µM (inactive)
same,GI50,ACHN,> 10 µM (inactive)
same,GI50,BT-549,> 10 µM (inactive)
same,GI50,CAKI-1,> 10 µM (inactive)
same,GI50,CCRF-CEM,> 10 µM (inactive)
same,GI50,COLO 205,> 10 µM (inactive)
same,GI50,DU-145,> 10 µM (inactive)
same,GI50,EKVX,> 10 µM (inactive)
same,GI50,HCC 2998,> 10 µM (inactive)
same,GI50,HCT-116,> 10 µM (inactive)
same,GI50,HCT-15,> 10 µM
same,GI50,HL-60,> 10 µM (inactive)
same,GI50,HOP-62,> 10 µM (inactive)
same,GI50,HOP-92,> 10 µM (inactive)
same,GI50,HT-29,> 10 µM (inactive)
same,GI50,Hs-578T,> 10 µM (inactive)
same,GI50,IGROV-1,> 10 µM (inactive)
same,GI50,K562,> 10 µM (inactive)
same,GI50,KM12,> 10 µM (inactive)
same,GI50,LOX IMVI,> 10 µM (inactive)
same,GI50,M14,> 10 µM (inactive)
same,GI50,MCF7,> 10 µM (inactive)
same,GI50,MDA-MB-231,> 10 µM (inactive)
same,GI50,MDA-MB-435,> 10 µM (inactive)
same,GI50,MDA-N,> 10 µM (inactive)
same,GI50,MOLT-4,> 10 µM (inactive)
same,GI50,Malme-3M,> 10 µM (inactive)
same,GI50,NCI-H226,> 10 µM (inactive)
same,GI50,NCI-H23,> 10 µM (inactive)
same,GI50,NCI-H460,> 10 µM (inactive)
same,GI50,NCI-H522,> 10 µM (inactive)
same,GI50,NCI/ADR-RES,> 10 µM (inactive)
same,GI50,OVCAR-3,> 10 µM (inactive)
same,GI50,OVCAR-4,> 10 µM (inactive)
same,GI50,OVCAR-5,> 10 µM (inactive)
same,GI50,OVCAR-8,> 10 µM (inactive)
same,GI50,PC-3,> 10 µM (inactive)
same,GI50,RPMI-8226,> 10 µM (inactive)
same,GI50,RXF 393,> 10 µM (inactive)
same,GI50,SF-268,> 10 µM (inactive)
same,GI50,SF-295,> 10 µM (inactive)
same,GI50,SF-539,> 10 µM (inactive)
same,GI50,SK-MEL-28,> 10 µM (inactive)
same,GI50,SK-MEL-2,> 10 µM (inactive)
same,GI50,SK-MEL-5,> 10 µM (inactive)
same,GI50,SK-OV-3,> 10 µM (inactive)
same,GI50,SN12C,> 10 µM (inactive)
same,GI50,SNB-19,> 10 µM (inactive)
same,GI50,SNB-75,> 10 µM (inactive)
same,GI50,SR,> 10 µM (inactive)
same,GI50,SW-620,> 10 µM (inactive)
same,GI50,T47D,> 10 µM (inactive)
same,GI50,TK-10,> 10 µM (inactive)
same,GI50,U-251,> 10 µM (inactive)
same,GI50,UACC-257,> 10 µM (inactive)
same,GI50,UACC-62,> 10 µM (inactive)
same,GI50,UO-31,> 10 µM (inactive)
